Measured values: patent US20200009173A1, “TRIAZOLE-CONTAINING MACROLIDES AND OPHTHALMIC USES THEREFOR” (Tetard, Inc., priority 2017, published 2020)
Converted amounts (≈) assume the structure as drawn. Like-named read-outs stand apart in the source and are kept apart here.

Test system: Mycoplasma pneumoniae
Assay: MIC, Mycoplasma pneumoniae (38 strains)
Type: cell-based

## CC[C@H]1OC(=O)[C@@](C)(F)C(=O)[C@H](C)[C@@H](O[C@@H]2O[C@H](C)C[C@H](N(C)C)[C@H]2O)[C@](C)(OC)C[C@@H](C)C(=O)[C@H](C)[C@H]2N(CCCCn3cc(-c4cccc(N)c4)nn3)C(=O)O[C@]12C [CEM-101, solithromycin]
Mycoplasma, 38 strains, read-out: MIC90
  MIC90: 0.125 ng/mL (≈ 0.148 nM)
Mycoplasma, N = 38
  MIC50: 0.032 ng/mL (≈ 0.0379 nM)
N = 38
  MIC90: 0.125 ng/mL (≈ 0.148 nM)
  MIC Range: ≤6.3e-05 to 500 ng/mL
